Laboratory results published in article PMC12473906, “Comparing the Altis RepliGut Organoid System to MDCK Monolayers in Predicting the Oral Absorption of Lenalidomide” (Pharmaceutics, 2025).
Like-named read-outs stand apart in the source and are kept apart here.

What was measured:
[1] = RepliGut human jejunal organoid-derived monolayer permeability assay; settings: human
[2] = system: human intestinal organoid-derived monolayer (RepliGut); test: as above
[3] = Lenalidomide pharmacokinetic study in rats (IV and oral); format: in vivo, Sprague Dawley rats; settings: for AUC / Cmax / Tmax / half-life / bioavailability: plasma; for bioavailability: po
Description: All animal pharmacokinetic experiments were carried out by WuXi (Shanghai, China). Animals were kept on a light-dark cycle and allowed to eat and drink ad libitum. Animals receiving oral doses were fasted overnight. Animals’ condition and behavior were monitored throughout the experiment for signs of pain and distress. We utilized only male rats because similar pharmacokinetics in both genders was previously reported and no dosage adjustment is recommended based on gender, in order to reduce the number of animals required.
Male Sprague Dawley rats (230–280 g) (n = 3 per group) were administered lenalidomide (0.1, 1, 2, 10, and 50 mg/kg). The vehicles for oral and intravenous dosing were 0.6% methylcellulose A15 + 0.2% Tween 80 in water and 10% DMSO + 60% propylene glycol + 30% water, respectively. Serum samples were obtained prior to administration (predose) and at 0.033, 0.083, 0.25, 0.5, 1, 2, 4, and 6 h postdose from the IV group and at 0.083, 0.25, 0.5, 1, 2, 4, 8, and 24 h from the oral groups. Approximately 250 μL was collected at each time point via a catheter at the femoral artery from each rat into prechilled commercial K2-EDTA tubes on wet ice. Samples were centrifuged (3200× g for 10 min at 4 °C) within one hour of collection and frozen at −60 °C or lower before analysis. Approximately 5 mL of whole blood was collected from additional blank animals into prechilled commercial K2-EDTA tubes on wet ice and pooled to serve as blank plasma for bio-analysis. […] Animals were kept in metabolic cages to collect urine, feces, and bile at different periods after dosing. Wet ice was added during the whole collection process for urine and feces. Feces was homogenized in water, and the urine samples and feces homogenates were kept at −70 ± 10 °C until LC-MS/MS analysis. Pharmacokinetic parameters were calculated by non-compartmental methods, as described in Gibaldi and Perrier, using Phoenix® WinNonlin® version 8.5 (Certara L.P., Radnor, PA, USA).
The human equivalent dose (HED) was calculated based on the previously reported AUC after a typical dose in humans. The percentage of lenalidomide excreted in the feces/urine in 24 h was calculated by multiplying the fecal weight/urine volume by its measured lenalidomide concentration and dividing by the total amount of lenalidomide administered.(2) Percentage excreted in feces=100 · Feces weight ·Feces concentration /Dose volume ·Dose concentration (3) Percentage excreted in urine=100 · Urine volume ·Urine concentration /Dose volume ·Dose concentration
For the in vivo study, mass spectrometry detection of lenalidomide was accomplished using a SCIEX QTrap 6500+. Transition pairs used for quantification were as follows: lenalidomide (260.1 → 149.1 Da), labetalol (329.1 → 294.1 Da), indomethacin (357.9 → 139.0 Da), and loperamide (477.1 → 266.2 Da). Separation was achieved using a Waters Acquity UPLC system.
For urine samples, mobile phase A was 0.1% NH4OH and 2 mM NH4OAc in water/acetonitrile (v:v, 95:5), and mobile phase B was 0.1% NH4OH and 2 mM NH4OAc in acetonitrile/water (v:v, 95:5). Mobile phases were operated at the following gradient: initial, 1% B; 0–0.2 min, 1% B; 0.2–1, 30% B; 1–1.5, 100% B; 1.5–1.9, 100% B; 1.9–1.91, 1% B; and 1.91–2, 1% B. The column used was a Waters Acquity UPLC BEH C18 1.7 μm (2.1 × 50 mm) with flow rate of 0.6 mL/min and column oven temperature of 60 °C.
For plasma and feces samples, mobile phase A was 0.1% formic acid and 2 mM HCOONH4 in water, and mobile phase B was 0.1% formic acid and 2 mM HCOONH4 in acetonitrile/water (v:v, 95:5). Mobile phases were operated at the following gradient: initial, 1% B; 0–0.3 min, 1% B; 0.3–1.5, 30% B; 1.5–2.1, 95% B; 2.1–2.4, 95% B; 2.4–2.41, 1% B; and 2.41–2.5, 1% B. The column used was a Waters Acquity UPLC HSS T3 1.8 μm (2.1 × 50 mm) with a flow rate of 0.6 mL/min and a column oven temperature of 45 °C.
For in vivo studies, feces samples were homogenized at a ratio of 1 g feces to 9 mL buffer. […]

[4] = pH 7.4, with elacridar + Ko143 (concentrations not given)
[5] = Sprague Dawley, rat, male rats, 0.1 mg/kg PO
[6] = Sprague Dawley, rat, male rats, 1 mg/kg IV
[7] = Sprague Dawley, rat, male rats, 2 mg/kg PO
[8] = Sprague Dawley, rat, male rats, 10 mg/kg PO
[9] = Sprague Dawley, rat, male rats, 50 mg/kg PO

Nc1cccc2c1CN(C1CCC(=O)NC1=O)C2=O (stereo not drawn) [Lenalidomide]
Papp A→B at 3 h ([1]; pH 7.4): 0.58 ×10⁻⁶ cm/s | Papp B→A at 3 h ([1]; pH 7.4): 2.64 ×10⁻⁶ cm/s | Papp at 3 h ([1]; pH 7.4): ~0.6 ×10⁻⁶ cm/s | Papp at 3 h, 500 µM ([1]; pH 7.4): 0.58 ×10⁻⁶ cm/s | efflux ratio at 3 h ([1]; pH 7.4, Efflux Ratio, human jejunal organoids, Papp B to A/Papp A to B): 4.6 | efflux ratio at 3 h ([1]; pH 7.4, efflux ratio, intestinal organoids, all concentrations): 3 to 4 | efflux ratio at 3 h ([1]; pH 7.4, with elacridar 5 µM + Ko143 1 µM, Efflux Ratio, human jejunal organoids + elacridar (5 μM) + Ko143 (1 μM)): ~1 | Papp A→B at 3 h [1, 4]: 0.52 ×10⁻⁶ cm/s | Papp B→A at 3 h [1, 4]: 0.8 ×10⁻⁶ cm/s | Efflux Substrate ([2]; Yes/No): Yes | intracellular concentrations in intestinal organoids with and without elacridar ([2]; apical dosing): similar | accumulation in cells, gMDCK vs organoids ([2]; basolateral dosing): greater in gMDCK cells than organoids | intracellular accumulation in organoids, lower than gMDCK ([2]; basolateral to apical direction): approximately 10 fold | accumulation in the cellular compartment, organoid vs gMDCK monolayers ([2]; dosed apically): no significant difference | apical to basolateral apparent permeability in intestinal organoids compared with gMDCK monolayers ([2]; organoid vs gMDCK): significantly higher | basolateral to apical permeability in intestinal organoids compared with gMDCK cells ([2]; organoid vs gMDCK): significantly higher | dose excreted ([3]; Sprague Dawley, rat, feces, male rats, 0.1 mg/kg PO, read-out: Fecal Recovery): 12% | dose excreted ([3]; Sprague Dawley, rat, feces, male rats, 1 mg/kg IV, 24 h, read-out: Fecal Recovery): 3.2% | dose excreted ([3]; Sprague Dawley, rat, feces, male rats, 2 mg/kg PO, read-out: Fecal Recovery): 12% | dose excreted ([3]; Sprague Dawley, rat, feces, male rats, 10 mg/kg PO, read-out: Fecal Recovery): 10% | dose excreted ([3]; Sprague Dawley, rat, feces, male rats, 50 mg/kg PO, read-out: Fecal Recovery): 16% | AUC [3, 5]: 0.29 µM·h | Cmax [3, 5]: 0.2 µM | Tmax [3, 5]: 25.2 min | half-life [3, 5]: 52.2 min | Cmax [3, 6]: 4.9 µM | Tmax [3, 6]: 1.8 min | half-life [3, 6]: 72 min | AUC ([3]; Sprague Dawley, rat, male rats, 1 mg/kg IV, serum, n=3): 2.34 µM·h | AUC [3, 7]: 5.44 µM·h | Cmax [3, 7]: 1.6 µM | Tmax [3, 7]: 19.8 min | half-life [3, 7]: 84 min | AUC [3, 8]: 15.4 µM·h | Cmax [3, 8]: 8.4 µM | Tmax [3, 8]: 25.2 min | half-life [3, 8]: 84 min | AUC [3, 9]: 79.4 µM·h | Cmax [3, 9]: 29 µM | Tmax [3, 9]: 30 min | half-life [3, 9]: 162 min | dose excreted ([3]; Sprague Dawley, rat, urine, male rats, 0.1 mg/kg PO, read-out: Urinary Recovery): 47% | dose excreted ([3]; Sprague Dawley, rat, urine, male rats, 1 mg/kg IV, 24 h, unchanged drug, read-out: Urinary Recovery): 87% | dose excreted ([3]; Sprague Dawley, rat, urine, male rats, 2 mg/kg PO, read-out: Urinary Recovery): 45% | dose excreted ([3]; Sprague Dawley, rat, urine, male rats, 10 mg/kg PO, read-out: Urinary Recovery): 48% | dose excreted ([3]; Sprague Dawley, rat, urine, male rats, 50 mg/kg PO, read-out: Urinary Recovery): 43% | BA ([3]; male rats, 0.1 mg/kg PO): 122% | BA ([3]; male rats, 1 mg/kg IV (reference)): 100% | BA ([3]; male rats, 2 mg/kg PO): 116% | BA ([3]; male rats, 10 mg/kg PO): 66.0% | BA ([3]; male rats, 50 mg/kg PO): 67.9% | dose excreted ([3]; male, Sprague Dawley, rat, feces, rats, across oral doses, read-out: fecal recovery): ~12% | bioavailability ([3]; male, Sprague Dawley, rat, rats, all doses): 68 to 120% | bioavailability ([3]; male, Sprague Dawley, rat, rats, low doses): > 100% | Tmax ([3]; male, Sprague Dawley, rat, rats, across oral doses): ~30 min | CL renal ([3]; male, Sprague Dawley, rat, urine and plasma, iv, 1 mg/kg, read-out: CLR (renal clearance)): 24 mL/min/kg | dose excreted ([3]; male, Sprague Dawley, rat, urine, rats, all oral doses, read-out: Urinary recovery): ~45% | Human Equivalent Dose ([3]; rat 2 mg/kg PO): ~26 mg | Human Equivalent Dose ([3]; rat 10 mg/kg PO): ~73 mg | Human Equivalent Dose ([3]; rat 50 mg/kg PO): ~376 mg
